In US7709458B2, “Method for inhibiting cancer cell proliferation or increasing cancer cell apoptosis” (priority 2004, dated 2010):

How the values were obtained:
[1] = patients with Stage II or III disease; adjuvant chemotherapy (Bresalier, 2002); cited from earlier work
[2] = test system: H508 human colon cancer cells; assay: H508 colon cancer cell proliferation assay (sulforhodamine B colorimetric assay); format: cell-based; conditions: for effect on basal H508 cell proliferation / effect on EGF-induced H508 cell proliferation / effect on acetylcholine-induced H508 cell proliferation: 50 μM; for effect on basal H508 cell proliferation / potency in reducing acetylcholine- and EGF-stimulated H508 proliferation compared with c-di-GMP: 5 days incubation; for effect on EGF-induced H508 cell proliferation: EGF 1 ng/ml; for effect on EGF-induced H508 cell proliferation / effect on acetylcholine-induced H508 cell proliferation: 5 days; for effect on acetylcholine-induced H508 cell proliferation: acetylcholine 300 μM
Description: H508 colon cancer cell culture. H508 human colon cancer cells were grown in RPMI 1640 (ATCC) supplemented with 10% fetal bovine serum (FBS) (Biowhittaker). Adherent cultures were passaged weekly at subconfluence after trypsinization. Cultures were maintained in incubators at 37° C. in an atmosphere of 5% CO2 and 95% air.
H508 colon cancer cell proliferation assay. Cell proliferation was determined using the sulforhodamine B (SRB) colorimetric assay (Skehan et al., 1990). Cells were seeded in 96-well plates (Corning Glass Works, Corning, N.Y.) at approx. 10% confluence and allowed to attach for 24 h. Growth medium was removed and fresh medium without FBS and containing the indicated concentration of test agent was added. Cells were incubated for the indicated periods of time at 37° C. in an atmosphere of 5% CO2 and 95% air. After incubation, cells were treated for 30 min with 0.4% (w/v) SRB dissolved in 1% acetic acid. Protein-bound dye was extracted with unbuffered 10 mM Tris base. Absorbance was measured at 560 nm using a computer-interfaced, 96-well microtiter plate reader.
c-di-GMP inhibits proliferation of human colon cancer cells. The potential therapeutic actions of c-di-GMP were examined on basal and growth factor-stimulated proliferation of cells derived from a moderately differentiated human cecal adenocarcinoma (H508 cells) that express M3 muscarinic (M3R) and epidermal growth factor (EGF) receptors (EGFR) (Cheng et al., 2003). Cell proliferation was determined using the validated sulforhodamine B (SRB) calorimetric assay (Skehan et al., 1990). H508 cells were incubated in the absence or presence of a growth stimulant, acetylcholine (300 μM) and EGF (1 ng/ml) alone or with increasing concentrations of c-di-GMP (0.5-50 μM). After a 5-day incubation, the highest concentration of c-di-GMP tested, 50 μM, reduced basal H508 cell proliferation by approx. 15% (FIG. 1; p<0.05 compared to control, Student's unpaired t-test).

Structure (SMILES)	reduction of colon cancer mortality [1]	reduction of colon cancer recurrence [1]	effect on basal H508 cell proliferation [2]	effect on EGF-induced H508 cell proliferation [2]	effect on acetylcholine-induced H508 cell proliferation [2]	potency in reducing acetylcholine- and EGF-stimulated H508 proliferation compared with c-di-GMP [2]
O=c1[nH]cc(F)c(=O)[nH]1 [5-fluorouracil]	33%	42%				
Nc1nc2c(ncn2[C@@H]2O[C@H](COP(=O)(O)O)[C@@H](O)[C@H]2O)c(=O)[nH]1 [5′-GMP, guanosine 5′-monophosphate, reference compound]			neither of the guanosine analogs tested, cGMP and 5′-GMP, altered basal proliferation	reduced	reduced	less potent in this action than c-di-GMP
Nc1nc2c(ncn2[C@@H]2O[C@@H]3COP(=O)(O)O[C@H]3[C@H]2O)c(=O)[nH]1 [cGMP, guanosine 3′,5′-cyclic monophosphate, reference compound]			neither of the guanosine analogs tested, cGMP and 5′-GMP, altered basal proliferation	reduced	reduced	less potent in this action than c-di-GMP
